Values belong to the molecule of their own block, whether it stands above or below them. Calls of active or inactive are those of the source.
Legend:
[1] = molecular target: Peroxisome proliferator-activated receptor gamma/Nuclear receptor coactivator 3 (Homo sapiens, UniProt P37231); assay type: functional;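 note: agonist potency for raising coactivator recruitment to the receptor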
[2] = molecular target: Transitional endoplasmic reticulum ATPase (Homo sapiens, UniProt P55072); assay: p97 ATPase inhibitors, dose response, biochemical (AID 1534)
[3] = molecular target: Peroxisome proliferator-activated receptor gamma/Nuclear receptor coactivator 1 (Homo sapiens, UniProt P37231); assay type: functional;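 note: agonist potency as compounds enhance coactivator SRC-1 recruitment to PPARgamma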
[4] = molecular target: Transitional endoplasmic reticulum ATPase (Homo sapiens, UniProt P55072, C522A); assay: C522A mutant p97 ATPase inhibitors, dose response, counter-screen for p97 inhibitor project, biochemical, luminescence (AID 1544)
[5] = molecular target: Peroxisome proliferator-activated receptor gamma/Nuclear receptor coactivator 2 (Homo sapiens, UniProt P37231); assay type: functional;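 note: agonist potency for raising coactivator recruitment to the receptor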
Estrogen receptor = molecular target: T1, Estrogen receptor (Homo sapiens, UniProt P03372); assay: ERα coactivator recruitment enhancers – biochemical, TR-FRET, ERα LBD, dose response (AID 737)
T1 sequence (P03372 whole entry): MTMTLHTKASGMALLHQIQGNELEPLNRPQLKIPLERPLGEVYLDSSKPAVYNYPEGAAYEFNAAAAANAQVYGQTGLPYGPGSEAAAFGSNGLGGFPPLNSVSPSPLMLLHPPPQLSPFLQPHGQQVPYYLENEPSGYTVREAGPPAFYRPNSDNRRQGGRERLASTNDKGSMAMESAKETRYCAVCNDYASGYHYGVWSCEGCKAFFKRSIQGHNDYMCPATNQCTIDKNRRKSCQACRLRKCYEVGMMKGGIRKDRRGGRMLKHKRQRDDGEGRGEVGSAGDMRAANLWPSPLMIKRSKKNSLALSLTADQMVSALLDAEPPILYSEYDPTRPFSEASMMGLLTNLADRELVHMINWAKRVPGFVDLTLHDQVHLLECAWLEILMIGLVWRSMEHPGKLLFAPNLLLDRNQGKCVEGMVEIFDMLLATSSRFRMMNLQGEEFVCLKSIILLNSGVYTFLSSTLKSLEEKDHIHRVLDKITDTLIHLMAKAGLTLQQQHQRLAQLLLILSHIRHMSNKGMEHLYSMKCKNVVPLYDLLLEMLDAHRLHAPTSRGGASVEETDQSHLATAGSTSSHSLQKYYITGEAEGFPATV

[6] = molecular target: Potassium voltage-gated channel subfamily KQT member 2 (Rattus norvegicus, UniProt O88943); assay: potentiation of rat KCNQ2 current – cell-based, retigabine-insensitive compounds, dose response (AID 2654); assay type: functional
[7] = molecular target: Neuropeptide Y receptor type 2 (Homo sapiens, UniProt P49146); assay type: functional, cell-based;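 note: HEK293 cells expressing the receptor and a CNG channel; stimulus was NPY near EC95 followed by isoproterenol to raise cAMP; antagonist potency measured as restoring cAMP signal that NPY suppresses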
[8] = molecular target: Neuropeptide Y receptor type 1 (Homo sapiens, UniProt P25929); assay type: functional;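 note: HEK293 cells with a CNG channel challenged with NPY then isoproterenol; potency as antagonist that reverses NPY suppression of cAMP signal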
[9] = molecular target: T2, Carboxy-terminal domain RNA polymerase II polypeptide A small phosphatase 1 (Homo sapiens, UniProt Q9GZU7); assay: CTDSP1 inhibitors, concentration-response, biochemical, absorbance readout, ultra-high-throughput screen actives (AID 540297); assay type: functional
T2 sequence (Q9GZU7 whole entry): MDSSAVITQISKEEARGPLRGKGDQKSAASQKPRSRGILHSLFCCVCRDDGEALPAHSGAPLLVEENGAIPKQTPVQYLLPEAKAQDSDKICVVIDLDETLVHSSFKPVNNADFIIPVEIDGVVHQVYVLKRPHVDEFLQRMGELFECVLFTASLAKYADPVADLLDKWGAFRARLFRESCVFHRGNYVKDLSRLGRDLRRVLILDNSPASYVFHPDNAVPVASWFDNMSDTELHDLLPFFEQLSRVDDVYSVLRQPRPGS

Caspase-6 = molecular target: T3, Caspase-6 (Homo sapiens, UniProt P55212); assay: inhibition of CASP6 peptide cleavage – biochemical, VEID-R110 fluorescence, cherry-pick, dose response (AID 720632)
T3 sequence (P55212 whole entry): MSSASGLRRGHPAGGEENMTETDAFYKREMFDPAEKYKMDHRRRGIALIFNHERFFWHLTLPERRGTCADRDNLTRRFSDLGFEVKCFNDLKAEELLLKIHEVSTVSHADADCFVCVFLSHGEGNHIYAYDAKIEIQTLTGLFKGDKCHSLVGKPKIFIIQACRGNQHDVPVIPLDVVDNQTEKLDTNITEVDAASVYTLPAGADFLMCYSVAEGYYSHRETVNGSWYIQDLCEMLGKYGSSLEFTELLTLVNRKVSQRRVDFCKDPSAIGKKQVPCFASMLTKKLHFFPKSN

Bcl-2-like protein 1 = Bcl-2-like protein 1 (Homo sapiens, UniProt Q07817); assay: blockers of BCLXL peptide binding – biochemical, fluorescence polarization, 1536-well, selectivity assay for MCL1 inhibitor project, dose response (AID 2218)
[10] = molecular target: Induced myeloid leukemia cell differentiation protein Mcl-1 (Homo sapiens, UniProt Q07820); assay: blockers of MCL1 binding to BIM peptide – biochemical, fluorescence polarization, BIM-BH3 peptide, 1536-well, dose response (AID 2217)
[11] = molecular target: T4, E3 ubiquitin-protein ligase XIAP (Homo sapiens, UniProt P98170); assay: small molecules displacing peptide from XIAP – biochemical, IAP family, fluorescence polarization (AID 1018); assay type: functional
[12] = molecular target: T4, E3 ubiquitin-protein ligase XIAP; assay: Counter Screen using XIAP-Bir3 for Chemical Antagonists of Bir1/2 domains of IAP-family anti-apoptotic proteins. [Related pubchem assays (depositor defined):AID1018, AID1449, AID1514, AID1638, AID1749, AID1750, AID488957, AID488963]
[13] = molecular target: T5, Mannose-6-phosphate isomerase (Homo sapiens, UniProt P34949); assay: MPI enzyme activity inhibition – biochemical, fluorescence intensity, coupled assay, primary screen (AID 1209)
T5 sequence (P34949 whole entry): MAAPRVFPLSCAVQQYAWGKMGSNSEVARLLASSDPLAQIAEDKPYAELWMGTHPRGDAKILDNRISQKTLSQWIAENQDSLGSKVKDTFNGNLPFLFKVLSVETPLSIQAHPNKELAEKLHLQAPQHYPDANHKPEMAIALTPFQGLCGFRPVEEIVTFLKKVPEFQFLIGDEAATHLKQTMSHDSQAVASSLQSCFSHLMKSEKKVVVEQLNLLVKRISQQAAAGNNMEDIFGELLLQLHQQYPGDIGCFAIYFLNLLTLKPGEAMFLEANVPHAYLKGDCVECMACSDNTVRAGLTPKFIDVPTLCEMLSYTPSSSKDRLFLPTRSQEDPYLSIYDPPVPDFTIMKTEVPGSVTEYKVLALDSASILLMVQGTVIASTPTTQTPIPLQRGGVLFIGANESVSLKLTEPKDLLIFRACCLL

T4 sequence (P98170 whole entry): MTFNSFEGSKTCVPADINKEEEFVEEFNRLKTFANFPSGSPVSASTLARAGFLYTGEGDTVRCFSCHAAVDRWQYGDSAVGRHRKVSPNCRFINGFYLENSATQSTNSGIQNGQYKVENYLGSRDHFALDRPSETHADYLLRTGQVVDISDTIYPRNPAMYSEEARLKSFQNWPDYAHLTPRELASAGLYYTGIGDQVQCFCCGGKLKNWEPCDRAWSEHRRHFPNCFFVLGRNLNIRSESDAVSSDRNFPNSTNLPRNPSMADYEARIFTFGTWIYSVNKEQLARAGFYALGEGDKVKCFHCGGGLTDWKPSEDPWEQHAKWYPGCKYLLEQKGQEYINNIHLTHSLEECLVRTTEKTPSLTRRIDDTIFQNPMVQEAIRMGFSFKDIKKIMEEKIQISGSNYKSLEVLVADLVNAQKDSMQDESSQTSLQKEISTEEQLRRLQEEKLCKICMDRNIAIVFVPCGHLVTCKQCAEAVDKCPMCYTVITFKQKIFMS
Sequence of Transitional endoplasmic reticulum ATPase (Homo sapiens, UniProt P55072) (P55072 whole entry): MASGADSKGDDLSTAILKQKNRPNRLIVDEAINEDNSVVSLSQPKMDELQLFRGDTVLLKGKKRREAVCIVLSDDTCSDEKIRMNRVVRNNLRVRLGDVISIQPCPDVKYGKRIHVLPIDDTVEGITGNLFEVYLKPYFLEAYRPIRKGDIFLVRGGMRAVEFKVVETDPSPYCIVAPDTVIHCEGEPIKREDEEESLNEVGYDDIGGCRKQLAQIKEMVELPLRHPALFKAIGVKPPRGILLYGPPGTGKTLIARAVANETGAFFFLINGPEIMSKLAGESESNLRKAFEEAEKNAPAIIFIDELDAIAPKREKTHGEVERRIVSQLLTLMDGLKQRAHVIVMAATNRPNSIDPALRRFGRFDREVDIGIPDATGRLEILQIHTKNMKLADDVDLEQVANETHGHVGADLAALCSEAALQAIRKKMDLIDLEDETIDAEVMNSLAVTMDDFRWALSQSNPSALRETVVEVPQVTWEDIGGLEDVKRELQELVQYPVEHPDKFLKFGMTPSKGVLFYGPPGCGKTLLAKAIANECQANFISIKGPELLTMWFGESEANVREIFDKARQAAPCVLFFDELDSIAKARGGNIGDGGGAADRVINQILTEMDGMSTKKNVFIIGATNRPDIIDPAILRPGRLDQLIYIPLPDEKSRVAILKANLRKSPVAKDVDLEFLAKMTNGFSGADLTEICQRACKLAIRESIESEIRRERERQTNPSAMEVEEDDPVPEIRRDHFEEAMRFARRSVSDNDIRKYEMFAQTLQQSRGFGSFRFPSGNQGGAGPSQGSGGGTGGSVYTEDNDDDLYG
Sequence of Neuropeptide Y receptor type 2 (P49146 whole entry): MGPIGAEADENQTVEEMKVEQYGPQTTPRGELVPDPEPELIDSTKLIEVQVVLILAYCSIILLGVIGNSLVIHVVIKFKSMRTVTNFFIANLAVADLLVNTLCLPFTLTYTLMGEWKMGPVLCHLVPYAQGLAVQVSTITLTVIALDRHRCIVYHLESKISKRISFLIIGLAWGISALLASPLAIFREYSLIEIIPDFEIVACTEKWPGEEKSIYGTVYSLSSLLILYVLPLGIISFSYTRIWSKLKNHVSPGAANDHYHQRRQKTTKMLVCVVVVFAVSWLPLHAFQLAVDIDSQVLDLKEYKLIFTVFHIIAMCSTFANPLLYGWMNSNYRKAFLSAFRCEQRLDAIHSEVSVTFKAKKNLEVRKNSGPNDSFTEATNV
Sequence of Potassium voltage-gated channel subfamily KQT member 2 (O88943 whole entry): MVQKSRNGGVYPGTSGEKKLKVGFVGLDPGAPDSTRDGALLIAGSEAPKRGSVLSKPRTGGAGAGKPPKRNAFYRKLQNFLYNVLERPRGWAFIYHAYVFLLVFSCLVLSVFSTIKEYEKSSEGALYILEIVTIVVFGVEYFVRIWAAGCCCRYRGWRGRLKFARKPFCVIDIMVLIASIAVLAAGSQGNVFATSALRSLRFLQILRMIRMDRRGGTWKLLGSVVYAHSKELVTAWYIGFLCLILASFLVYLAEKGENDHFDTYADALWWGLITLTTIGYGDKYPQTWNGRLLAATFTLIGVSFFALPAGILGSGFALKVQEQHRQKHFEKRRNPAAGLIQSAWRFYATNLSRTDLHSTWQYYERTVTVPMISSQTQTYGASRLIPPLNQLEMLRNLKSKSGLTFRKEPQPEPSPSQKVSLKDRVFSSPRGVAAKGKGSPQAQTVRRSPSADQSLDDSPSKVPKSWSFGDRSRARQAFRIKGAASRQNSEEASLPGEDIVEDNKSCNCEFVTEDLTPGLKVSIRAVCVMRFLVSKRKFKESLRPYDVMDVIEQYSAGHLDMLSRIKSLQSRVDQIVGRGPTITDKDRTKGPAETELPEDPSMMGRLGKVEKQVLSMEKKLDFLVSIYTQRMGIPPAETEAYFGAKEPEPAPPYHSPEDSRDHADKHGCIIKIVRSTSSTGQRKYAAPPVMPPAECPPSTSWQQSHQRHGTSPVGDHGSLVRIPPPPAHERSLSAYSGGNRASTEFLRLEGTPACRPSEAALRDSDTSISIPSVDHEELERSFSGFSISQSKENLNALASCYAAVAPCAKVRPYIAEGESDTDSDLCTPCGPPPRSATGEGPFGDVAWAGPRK
Sequence of Bcl-2-like protein 1 (Q07817 whole entry): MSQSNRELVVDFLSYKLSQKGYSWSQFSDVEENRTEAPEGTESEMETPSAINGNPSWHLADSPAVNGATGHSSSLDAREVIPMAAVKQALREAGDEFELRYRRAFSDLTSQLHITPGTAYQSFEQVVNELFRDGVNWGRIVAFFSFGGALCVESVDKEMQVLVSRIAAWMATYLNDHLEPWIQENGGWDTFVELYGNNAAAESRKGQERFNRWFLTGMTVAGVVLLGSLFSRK
Sequence of Peroxisome proliferator-activated receptor gamma/Nuclear receptor coactivator 3 (P37231 whole entry): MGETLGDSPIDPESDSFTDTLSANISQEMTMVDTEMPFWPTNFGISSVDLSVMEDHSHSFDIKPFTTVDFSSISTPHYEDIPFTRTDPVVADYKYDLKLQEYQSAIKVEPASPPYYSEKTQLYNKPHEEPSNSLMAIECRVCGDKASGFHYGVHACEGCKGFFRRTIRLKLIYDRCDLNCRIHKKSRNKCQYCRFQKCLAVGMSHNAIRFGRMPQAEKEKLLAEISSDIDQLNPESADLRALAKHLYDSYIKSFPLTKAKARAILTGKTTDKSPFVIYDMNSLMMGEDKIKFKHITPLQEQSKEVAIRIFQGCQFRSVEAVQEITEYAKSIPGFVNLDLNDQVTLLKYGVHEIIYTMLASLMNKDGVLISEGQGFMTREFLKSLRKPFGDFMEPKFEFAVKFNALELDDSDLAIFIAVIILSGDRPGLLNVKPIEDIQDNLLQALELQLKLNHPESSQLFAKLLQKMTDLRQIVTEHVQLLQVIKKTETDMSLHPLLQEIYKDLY
Sequence of Peroxisome proliferator-activated receptor gamma/Nuclear receptor coactivator 3 (Q9Y6Q9 whole entry, further chain): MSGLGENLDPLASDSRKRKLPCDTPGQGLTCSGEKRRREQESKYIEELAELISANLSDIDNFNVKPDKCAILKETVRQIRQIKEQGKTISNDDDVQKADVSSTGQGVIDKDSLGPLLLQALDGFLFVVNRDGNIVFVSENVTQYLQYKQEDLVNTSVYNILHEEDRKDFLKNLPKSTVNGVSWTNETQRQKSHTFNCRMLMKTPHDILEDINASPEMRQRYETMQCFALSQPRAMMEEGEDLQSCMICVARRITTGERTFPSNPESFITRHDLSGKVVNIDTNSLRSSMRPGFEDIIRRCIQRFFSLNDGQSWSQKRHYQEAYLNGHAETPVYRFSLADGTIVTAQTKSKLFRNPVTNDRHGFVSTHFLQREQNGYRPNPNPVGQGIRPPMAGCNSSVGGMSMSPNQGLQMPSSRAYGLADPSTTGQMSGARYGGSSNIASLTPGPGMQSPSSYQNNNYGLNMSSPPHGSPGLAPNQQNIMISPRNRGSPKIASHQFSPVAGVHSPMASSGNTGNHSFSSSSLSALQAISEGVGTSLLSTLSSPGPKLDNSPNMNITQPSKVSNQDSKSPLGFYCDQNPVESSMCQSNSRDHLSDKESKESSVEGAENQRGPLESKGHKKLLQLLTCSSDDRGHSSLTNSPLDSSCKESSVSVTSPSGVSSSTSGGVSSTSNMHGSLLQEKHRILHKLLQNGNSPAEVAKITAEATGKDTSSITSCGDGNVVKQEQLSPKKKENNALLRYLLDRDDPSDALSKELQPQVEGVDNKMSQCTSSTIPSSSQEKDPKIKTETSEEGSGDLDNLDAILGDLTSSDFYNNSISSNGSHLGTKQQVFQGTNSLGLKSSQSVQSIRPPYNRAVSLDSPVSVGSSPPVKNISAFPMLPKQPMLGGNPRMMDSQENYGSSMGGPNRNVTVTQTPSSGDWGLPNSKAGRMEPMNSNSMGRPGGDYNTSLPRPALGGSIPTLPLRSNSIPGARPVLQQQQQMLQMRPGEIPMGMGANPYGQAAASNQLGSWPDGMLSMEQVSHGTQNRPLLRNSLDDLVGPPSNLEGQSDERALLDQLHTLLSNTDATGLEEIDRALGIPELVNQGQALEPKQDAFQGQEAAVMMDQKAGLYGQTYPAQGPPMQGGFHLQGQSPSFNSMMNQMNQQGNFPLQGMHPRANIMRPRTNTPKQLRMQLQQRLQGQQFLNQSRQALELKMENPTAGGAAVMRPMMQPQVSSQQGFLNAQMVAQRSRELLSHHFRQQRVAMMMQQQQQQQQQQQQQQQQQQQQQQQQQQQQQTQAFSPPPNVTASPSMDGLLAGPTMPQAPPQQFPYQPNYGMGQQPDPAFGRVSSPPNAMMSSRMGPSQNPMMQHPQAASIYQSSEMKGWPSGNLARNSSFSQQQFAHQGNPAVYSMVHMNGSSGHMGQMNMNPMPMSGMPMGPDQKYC
Sequence of Induced myeloid leukemia cell differentiation protein Mcl-1 (Q07820 whole entry): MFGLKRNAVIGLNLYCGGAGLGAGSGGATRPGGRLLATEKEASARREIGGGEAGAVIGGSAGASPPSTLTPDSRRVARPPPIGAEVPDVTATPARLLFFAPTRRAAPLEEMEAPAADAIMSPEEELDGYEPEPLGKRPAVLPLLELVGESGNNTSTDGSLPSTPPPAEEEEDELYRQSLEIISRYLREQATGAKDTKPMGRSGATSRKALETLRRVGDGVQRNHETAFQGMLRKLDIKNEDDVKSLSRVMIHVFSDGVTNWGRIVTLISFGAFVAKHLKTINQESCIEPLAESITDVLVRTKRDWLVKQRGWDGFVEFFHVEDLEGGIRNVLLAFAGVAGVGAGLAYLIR

Structure (SMILES): N#Cc1c(NC(=O)c2ccccc2Cl)n(Cc2ccccc2)c2nc3ccccc3nc12
EC50 [1]: 9.38 µM (active)
IC50 [2]: > 50 µM (not active)
EC50 [3]: > 79.4 µM (not active)
IC50 [4]: > 50 µM (not active)
EC50 [5]: > 26.5 µM (not active)

Structure (SMILES): COc1ccc(-c2nnc(SCC(=O)c3cc(C)n(Cc4cccs4)c3C)o2)cc1
EC50 (Estrogen receptor): 7.51 µM (active)

Structure (SMILES): COc1ccc(CC(=O)Oc2cc(C)nc(O)c2[N+](=O)[O-])cc1
IC50 [11]: > 100 µM (not active)
IC50 [12]: > 100 µM (inactive)

Structure (SMILES): CC(C)c1ccc(N2C(=O)CC(Sc3nc[nH]n3)C2=O)cc1 (stereo unspecified)
IC50 [13]: > 50 µM (not active)

Further lines, results first:

EC50 [6]: 203 µM (active)
Structure (SMILES): COc1ccc(NC(=O)Nc2cccnc2)cc1

IC50 [7]: 9.67 µM (active)
IC50 [8]: 5.16 µM (active)
Structure (SMILES): O=C(COc1ccccc1CNCc1ccccc1)Nc1ccccc1

IC50 [9]: 3.73 µM (active)
AC50 (Caspase-6): 17.7 µM (active)
IC50 (Bcl-2-like protein 1): > 109 µM (not active)
IC50 [10]: 50.2 µM (not active)
Structure (SMILES): COc1cccc(C(=O)OCC(=O)Nc2sc3c(c2C(N)=O)CCC3)c1O
